Earlier results on eleven molecules are cited in patent US20240335498A1, “COMPOSITION AND METHODS OF TREATMENT USING TRANSDERMAL SUPPLEMENTATION” (Xygenyx Inc., priority 2023, published 2024).

Square brackets hold non-standard residues; d marks the D form. Peptide text beside a SMILES is read from it. Cit = NC(=O)NCCC[C@H](N)C(=O)O

For data set [1] the following is noted: in vivo.
The conditions of data set [2]: compared to α-tocopherol = 1.0.
The conditions of data set [3]: topical formulations, within four weeks of treatment.
For data set [4] the following is noted: penetration enhancer used alone.
For data set [5] the following is noted: topical application, concentrations 0.5-5%.
For data set [6] the following is noted: even when dietary intake occurs in equal portions.
The test system of data set [7] is wide dynamic range neurons in the ventroposterolateral nucleus of the thalamus.
For data set [8] the following is noted: dietary supplementation, doses up to 400 IU/day.
In data set [9] the test system is F2-isoprostane. The settings on record: large doses of 1600-3200 IU/day.

Regarding “HGH: hormone comprising a peptide chain that is synthesized in the pituitary gland”, the biological half-life in data set [1] is given as 10-20 minutes. With `Cc1cc(O)c(C)c2c1O[C@](C)(CCC[C@H](C)CCC[C@H](C)CCCC(C)C)CC2` [β-tocopherol], the relative biological activity in data set [2] is given as 0.5. Regarding `CC[C@H](C)[C@H](NC(=O)[C@H](CC(=O)O)NC(=O)[C@@H](N)CCCCN)C(=O)N[C@@H](CCCNC(N)=O)C(N)=O` [tripeptide-10 citrulline, Tripeptide-10 citrulline] (H-KDI[Cit]-NH2), in data set [3], the improvement of suppleness was no more than 54%. For the molecule `CC(C)[C@@H]1CC[C@@H](C)C[C@H]1O` [Menthol], the “increase of transdermal drug uptake (factor)” value in [4] is listed as no less than 10. Take `C=CCCCCCCCCC(=O)N[C@@H](Cc1ccccc1)C(=O)O` [UP, Undecylenoyl phenylalanine]: in data set [5], the “time to skin lightening effects” value was no less than 7 days.

With `C/C(=C\CO)CCC[C@H](C)CCC[C@H](C)CCCC(C)C` [phytol, Phytol], the solubility in water result is “nearly insoluble”. Consider `Cc1c(O)cc2c(c1C)O[C@](C)(CCC[C@H](C)CCC[C@H](C)CCCC(C)C)CC2` [γ-tocopherol], for which the relative biological activity in [2] is recorded as 0.1. Also, in [6], the “concentration in vivo relative to α-tocopherol” value was “roughly 10%”. On to `CCCCCc1cc(O)c2c(c1)OC(C)(C)C1CCC(C)=CC21` (stereo not drawn) [THC, Δ-9-tetrahydrocannabinol], for which, in data set [7], the “power in mediating pain relative to morphine” value is listed as “ten times more powerful”.

`Cc1c(C)c2c(c(C)c1O)CC[C@@](C)(CCC[C@H](C)CCC[C@H](C)CCCC(C)C)O2` [α-tocopherol]: the “reduction of the risk of coronary disease” value in [8] was “up to 34%”. Besides, in data set [8] (controlled trials), the “reduction of the risk of developing neurodegenerative diseases such as Alzheimer's Syndrome or dementia” value is recorded as no more than 24%. For the same molecule, the relative biological activity in data set [2] is given as 1.0. Besides, the “blood plasma concentration of F2-isoprostane” value in data set [9] is “significantly lower”. Regarding `Cc1cc(O)cc2c1O[C@](C)(CCC[C@H](C)CCC[C@H](C)CCCC(C)C)CC2` [δ-tocopherol], the relative biological activity in data set [2] was 0.03.

For the molecule `CC12CCC(CC1)C(C)(C)O2` [eucalyptol, Eucalyptol], the “increase of transdermal drug uptake (factor)” value in data set [4] is listed as “more than 10”.
